Laboratory results taken from US10556994B2, “Strictly segmented thermoplastic elastomers as biodegradable biomaterials” (SyMO-Chem B.V., priority 2014, dated 2020).
Read-outs that look alike come from different tables or passages of the source.

Experiments:
[1] = Solubility in PBS of hard block degradation products; format: physicochemical; conditions: for solubility: aqueous buffer
Description: The variety of the biodegradation products of the [AB]n materials of this invention is limited, where this is due to the simple and defined molecular structures of the [AB]n materials with only one type of soft block A and only one type of hard block B for a particular [AB]n material. […] Degradation products from the hard block are lower molecular weight molecules such as the molecules shown in Examples 25 and 26 (not: molecules 26E, 26F, 26G).

3T3 mouse fibroblasts [2] = experiment: MTT cytotoxicity assay; conditions: cells treated with medium exposed to the material, relative to untreated medium
3T3 mouse fibroblasts [3] = tested on: 3T3 mouse fibroblasts

Row | Compound | solubility [1] [µg/mL] | further results
1 | O=C(O)CCCCCNC(=O)NCCCCNC(=O)NCCCCCC(=O)O [Example 26B] | – | solubility in PBS [1]: > 1000 µg/mL
2 | Triton X-100 | – | cell viability (3T3 mouse fibroblasts [2]): 0%
3 | poly(hexyl carbonate-random-co-ε-caprolactone) bisurea [Example 32] | – | cell viability (3T3 mouse fibroblasts [3]): 60-116%

Continued, in another order:

Row | solubility [1] [µg/mL] | Compound | further results
4 | > 5000 | NCCCCCNC(=O)CCCCCN [Example 25C, 6-amino-N-(5-aminopentyl)hexanamide] | –
5 | > 5000 | NCCCCNC(=O)CCCCC(=O)NCCCCN [Example 25D, N^1,N^6-bis(4-aminobutyl)adipamide] | –
6 | > 5000 | NCCCCCCNC(=O)NCCCCCCN [Example 25E, 1,3-bis-(6-aminohexyl)urea] | –
